Reference: publication PMC12261219, “Comparative Evaluation of Thiol- and Amine-Conjugating Moieties for Endogenous Albumin Binding after Intravenous Administration” (ACS Pharmacology & Translational Science, 2025)
“And” between values parts separate entries of the source, which are not always exact repeats. Equal entries are not always repeated.

Key:
[1] = Hydrolytic stability in buffer (HPLC); format: physicochemical; conditions: 0.5 mM
Experimental: The samples were incubated at 20 °C and measured over 25 h. Reversed phase high-performance liquid chromatography (RP-HPLC) runs were performed using a Waters Acquity UPLC BEH C18 column (130 Å, 1.7 μm, 3 mm × 50 mm) on a Dionex Thermo Scientific UltiMate 3000 HPLC system, equipped with a HPG-3400RS binary pump and a DAD-3000 UV–vis detector. Chromatograms were evaluated at a wavelength of 220 nm. Milli-Q water (mobile phase A) and acetonitrile (mobile phase B), both containing 0.1% TFA, were used as eluents. The flow rate was consistent at 0.6 mL/min for all measurements using the following gradient: 0–0.5 min A 95:5 B, 0.5–5.5 min linear gradient to A 5:95 B, 5.5–6.5 min A 5:95 B, 6.5–9.2 min A 95:5 B. The same conditions were applied for stability measurements in 100 mM PB at pH 5.5 and 6.5 as well as in 20 mM HEPES and MOPS at pH 7.4. RP-HPLC-MS analyses of the same samples after the stability measurements were conducted on a Waters Acquity UPLC BEH C18 column (130 Å, 1.7 μm, 3 mm × 50 mm) on an Agilent 1260 Infinity II system equipped with a Flexible pump, a 1260 VWD UV–vis detector and the LC–MSD system. Chromatograms were evaluated at a wavelength of 220 nm. Milli-Q water (mobile phase A) and acetonitrile (mobile phase B), both containing 0.1% formic acid, were used as eluents. The flow rate was consistent at 0.6 mL/min for all measurements using the following gradient: 0–0.5 min A 95:5 B, 0.5–6.0 min linear gradient to A 5:95 B, 6.0–7.0 min A 5:95 B, 7.0–7.1 min linear gradient to A 95:5 B, 7.1–8.0 min A 95:5 B.

[2] = Reduction with ascorbic acid, release of oxaliplatin (HPLC); format: physicochemical; conditions: 0.5 mM, 150 mM PB, pH 7.4, 20 °C, 30 eq. ascorbic acid
Experimental: The samples were incubated at 20 °C and measured over 25 h. […] RP-HPLC runs were performed using a Waters Acquity UPLC HSS T3 column (100 Å, 1.8 μm, 3.0 mm × 50 mm) on a Dionex Thermo Scientific UltiMate 3000 HPLC system, equipped with a HPG-3400RS binary pump and a DAD-3000RS UV–vis detector. Chromatograms were evaluated at a wavelength of 230 nm. Milli-Q water (mobile phase A) and acetonitrile (mobile phase B), both containing 0.1% TFA, were used as eluents. The flow rate was consistent at 0.6 mL/min for all measurements using the following gradient: 0–0.5 min A 99:1 B, 0.5–5.5 min linear gradient to A 1:99 B, 5.5–6.5 min A 1:99 B, 6.5–9.2 min A 99:1 B.

albumin (mouse serum) = target: T1, albumin (mouse serum) (Mus musculus, UniProt P07724); assay: SEC-ICP-MS albumin binding in mouse serum; format: in vitro ADME; conditions: 100 µM, 37 °C
T1 construct: The serum was separated by centrifugation (two times 10 min at 900 g) after 10–20 min clotting at room temperature; from tissue; host or cells: serum of Balb/c mice
Experimental: Blood of Bab/c mice was collected under anesthesia via heart puncture. […] Human serum was purchased from Sigma-Aldrich. In order to guarantee a stable pH, all sera were buffered with 150 mM phosphate to pH 7.4 by dissolving the necessary amounts of Na2HPO4 and NaH2PO4 directly in the serum. […] The samples were then incubated in the autosampler at 37 °C and analyzed every hour for 4 or 5 h and after 24 h. Between each sample a pure water blank was measured. For measurements with 10 min intervals the same procedure was followed, but the blank measurements were omitted. For SEC-ICP-MS measurements an Agilent 1260 Infinity system coupled to an Agilent 7800 ICP-HRMS equipped with a dynamic reaction cell was used. Oxygen (purity 5.5, Messer Austria GmbH, Gumpoldskirchen, Austria) was used as reaction gas.

albumin = target: T2, albumin (Homo sapiens, UniProt P02768); assay: SEC-ICP-MS with single serum protein solution: albumin; format: binding; conditions: 200 μM albumin, 100 μM compound, 100 mM PB pH 7.4, 37 °C, 2 h
T2 construct: purchased Sigma-Aldrich A8763
Experimental: (§1) All investigated proteins were purchased from commercial suppliers: Albumin (Sigma-Aldrich, A8763), IgG (Athens Research, 16–16–090707), α1-antitrypsin (Sigma-Aldrich, A6150) and apotransferrin (Sigma-Aldrich, T1147). […] The compound stocks were diluted into the protein solution to reach a final concentration of 100 μM (27 μL protein and 3 μL compound). The samples were incubated at 37 °C for 2 h and analyzed as described for the SEC-ICP-MS studies (Tables S6 and S7).

IgG = assay: SEC-ICP-MS with single serum protein solution: IgG; format: binding, human; conditions: 200 μM IgG, 100 μM compound, 100 mM PB pH 7.4, 37 °C, 2 h
Experimental: as §1

apotransferrin = target: T3, apotransferrin (Homo sapiens, UniProt P02787); assay: SEC-ICP-MS with single serum protein solution: apotransferrin; format: binding; conditions: 200 μM apotransferrin, 100 μM compound, 100 mM PB pH 7.4, 37 °C, 2 h
T3 construct: purchased Sigma-Aldrich T1147
Experimental: as §1

α1-antitrypsin = target: T4, α1-antitrypsin (Homo sapiens, UniProt P01009); assay: SEC-ICP-MS with single serum protein solution: α1-antitrypsin; format: binding; conditions: 200 μM α1-antitrypsin, 100 μM compound, 100 mM PB pH 7.4, 37 °C, 2 h
T4 construct: purchased Sigma-Aldrich A6150
Experimental: as §1

[3] = Serum pharmacokinetics (platinum, ICP-MS) in CT26-bearing Balb/c mice; conditions: serum platinum
Experimental: CT26 cells (5 × 10^5 in 50 μL serum-free medium) were injected subcutaneously (s.c.) into the right flank of male Balb/c mice. […] The blood, tumor and organ collection followed the study design in Figure A. Briefly, to assess serum platinum levels, blood was collected after 5 min, 30 min, 5 h and 24 h (2 mice per time point) via the facial vein. The serum was separated by centrifugation (two times 10 min at 900 g) after 10 min clotting at room temperature. […] All collected samples were stored at −20 °C and further processed for platinum measurements via ICP-MS as follows: HNO3 (67–69%, suprapur for trace metal analysis, NORMATOM; Distributor: VWR international, Austria) and conc. H2O2 suprapur (Merck, 30%) were used without further purification. Digestion of tissue (approximately 15–30 mg gravimetrically weighted) was performed with 2 mL of approximately 20% HNO3 and 100 μL H2O2 using an open vessel graphite digestion system (coated graphite heating plate, coated sample holder-top for 25 mL vials, PFA vials and PFA lids; Labter, ODLAB; Distributor: AHF Analysentechnik AG; Germany). Digested samples were diluted in Milli-Q water (18.2 MΩ cm, Milli-Q Advantage, Darmstadt, Germany). For the ICP-MS analysis, platinum and rhenium standards were derived from CPI International (Amsterdam, The Netherlands). The total platinum content was determined with a quadrupole-based Agilent 7800 ICP-MS instrument (Agilent Technologies, Tokyo, Japan) equipped with the Agilent SPS 4 autosampler (Agilent Technologies, Tokyo, Japan) and a MicroMist nebulizer at a sample uptake rate of approximately 0.2 mL/min. An RF power of 1550 W was used as well as nickel cones. Argon was used as plasma gas (15 L/min) and as carrier gas (∼1.1 L/min). The dwell time was set to 0.1 s and the measurements were performed in 6 replicates with 100 sweeps. Rhenium served as internal standard for platinum. The Agilent MassHunter software package (Workstation Software, version C.01.04) was used for data processing.
As platinum was measured in serum, equimolar administered doses were adjusted to correspond to platinum (0.0227 mmol, 4.42 mg platinum). The area under the “concentration”–time curve (AUC) was determined from time 0 to infinity (AUCPt_0‑∞) and from time 0 to 24 h (AUCPt_0–24, based on the last observed sample at 24 h; linear-log trapezoidal calculation method). The terminal slope (λ z ) was determined based on the last two (out of four) measurements (times 5 h and 24 h).

[4] = pH 7.4, 10 min intervals, 0 min
[5] = pH 7.4, 10 min intervals, 10 min
[6] = pH 7.4, 10 min intervals, 20 min
[7] = pH 7.4, 10 min intervals, 30 min
[8] = pH 7.4, 10 min intervals, 40 min
[9] = pH 7.4, 10 min intervals, 50 min
[10] = pH 7.4, 10 min intervals, 60 min

T1 sequence (P07724 25-608): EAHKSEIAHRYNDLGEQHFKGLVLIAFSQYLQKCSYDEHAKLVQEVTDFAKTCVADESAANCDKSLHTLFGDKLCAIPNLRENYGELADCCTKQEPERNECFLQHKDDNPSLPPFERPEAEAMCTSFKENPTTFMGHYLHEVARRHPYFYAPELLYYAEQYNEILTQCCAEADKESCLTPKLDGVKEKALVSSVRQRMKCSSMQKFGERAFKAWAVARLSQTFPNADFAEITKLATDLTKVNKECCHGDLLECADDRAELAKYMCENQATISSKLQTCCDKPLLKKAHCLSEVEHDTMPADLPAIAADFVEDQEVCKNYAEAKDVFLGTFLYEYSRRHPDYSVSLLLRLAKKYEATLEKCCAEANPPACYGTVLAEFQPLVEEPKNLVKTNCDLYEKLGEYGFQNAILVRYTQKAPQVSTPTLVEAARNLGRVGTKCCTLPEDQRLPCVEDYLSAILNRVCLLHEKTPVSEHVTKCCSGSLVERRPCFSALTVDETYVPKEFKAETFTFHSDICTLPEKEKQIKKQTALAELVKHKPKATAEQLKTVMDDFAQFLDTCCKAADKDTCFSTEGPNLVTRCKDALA
T3 sequence (P02787 20-698): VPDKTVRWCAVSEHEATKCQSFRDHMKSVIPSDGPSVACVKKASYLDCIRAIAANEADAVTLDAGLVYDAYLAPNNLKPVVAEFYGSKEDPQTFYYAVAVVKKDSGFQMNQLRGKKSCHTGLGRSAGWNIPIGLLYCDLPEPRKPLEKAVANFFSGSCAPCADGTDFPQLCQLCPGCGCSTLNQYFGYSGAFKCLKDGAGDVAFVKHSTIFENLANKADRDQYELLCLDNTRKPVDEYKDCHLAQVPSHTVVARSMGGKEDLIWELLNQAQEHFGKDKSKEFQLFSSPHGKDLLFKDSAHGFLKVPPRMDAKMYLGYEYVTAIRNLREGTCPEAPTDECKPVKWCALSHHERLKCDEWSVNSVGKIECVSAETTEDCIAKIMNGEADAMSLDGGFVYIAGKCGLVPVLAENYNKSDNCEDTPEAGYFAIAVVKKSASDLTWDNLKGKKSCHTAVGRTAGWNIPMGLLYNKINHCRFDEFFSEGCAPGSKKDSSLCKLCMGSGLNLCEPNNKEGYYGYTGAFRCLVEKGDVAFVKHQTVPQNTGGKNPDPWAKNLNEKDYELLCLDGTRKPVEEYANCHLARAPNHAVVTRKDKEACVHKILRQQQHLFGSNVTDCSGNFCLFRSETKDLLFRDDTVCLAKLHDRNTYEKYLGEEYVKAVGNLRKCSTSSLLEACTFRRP
T2 sequence (P02768 25-609): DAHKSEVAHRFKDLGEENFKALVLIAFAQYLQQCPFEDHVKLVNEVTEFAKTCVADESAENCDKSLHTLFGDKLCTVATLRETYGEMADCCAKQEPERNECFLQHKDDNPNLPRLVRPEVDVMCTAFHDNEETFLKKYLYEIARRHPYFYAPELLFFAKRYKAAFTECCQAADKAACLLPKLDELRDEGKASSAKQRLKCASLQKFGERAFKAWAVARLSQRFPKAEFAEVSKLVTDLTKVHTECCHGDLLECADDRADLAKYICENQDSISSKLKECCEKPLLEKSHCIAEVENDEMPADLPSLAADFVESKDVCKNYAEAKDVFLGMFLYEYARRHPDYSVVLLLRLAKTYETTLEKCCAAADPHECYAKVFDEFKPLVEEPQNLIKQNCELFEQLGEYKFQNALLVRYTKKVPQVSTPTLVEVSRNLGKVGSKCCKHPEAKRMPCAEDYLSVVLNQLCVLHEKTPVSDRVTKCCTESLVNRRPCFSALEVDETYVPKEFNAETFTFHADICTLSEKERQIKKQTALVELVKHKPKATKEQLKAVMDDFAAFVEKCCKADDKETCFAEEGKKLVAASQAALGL
T4 sequence (P01009 25-418): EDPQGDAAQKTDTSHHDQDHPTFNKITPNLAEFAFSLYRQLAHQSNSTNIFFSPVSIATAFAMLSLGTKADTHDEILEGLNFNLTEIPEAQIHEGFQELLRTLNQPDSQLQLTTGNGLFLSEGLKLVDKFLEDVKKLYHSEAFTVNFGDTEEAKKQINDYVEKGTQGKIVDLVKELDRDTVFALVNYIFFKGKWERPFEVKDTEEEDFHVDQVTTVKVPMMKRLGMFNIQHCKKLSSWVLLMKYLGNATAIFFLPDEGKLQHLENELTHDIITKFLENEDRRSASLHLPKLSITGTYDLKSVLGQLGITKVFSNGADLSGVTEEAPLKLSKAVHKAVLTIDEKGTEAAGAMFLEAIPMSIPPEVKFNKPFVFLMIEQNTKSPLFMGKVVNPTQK

**Q.** For `CC(=O)[O][Pt-2]12([O]C(=O)NCCOCCOCCOCCOCCN3C(=O)C=CC3=O)([NH2+][C@@H]3CCCC[C@H]3[NH2+]1)[O]C(=O)C(=O)[O]2` [Mal-Ox-OAc, (OC-6–34)-Acetato[(1R,2R)-1,2-cyclohexane-1,2-diamino][ (14-(2,5-dioxo-2,5-dihydro-1H-pyrrol-1-yl)-3,6,9,12-tetraoxatetradecyl)-carbamato]-oxalato platinum(IV)], which “Intact compound after 25 h” value ([1]; 20 mM HEPES, pH 7.4, 20 °C) is on record?
**A.** 56% and ~60%

**Q.** What about the “Intact compound after 25 h” value ([1]; 20 mM MOPS, pH 7.4, 20 °C) of the same compound?
**A.** 58% and ~60%

**Q.** And the “Intact compound after 25 h” value ([1]; 100 mM PB, pH 5.5, 20 °C)?
**A.** 96%

**Q.** And the “Intact compound after 25 h” value ([1]; 100 mM PB, pH 6.5, 20 °C)?
**A.** 80%

**Q.** What about the “Intact compound after 25 h” value ([1]; 100 mM PB, pH 7.4, 20 °C) of the same compound?
**A.** 23%

**Q.** What about the “Oxaliplatin detected (released) after 25 h” value [2] of the same compound?
**A.** 18%

**Q.** What about the “Pt195 in HMWF (albumin-bound)” value (albumin (mouse serum); [4]) of the same compound?
**A.** 36%

**Q.** What about the “Pt195 in LMWF” value (albumin (mouse serum); [4]) of the same compound?
**A.** 64%

**Q.** What about the “Pt195 in HMWF (albumin-bound)” value (albumin (mouse serum); [5]) of the same compound?
**A.** 58% and ~60%

**Q.** And the “Pt195 in LMWF” value (albumin (mouse serum); [5])?
**A.** 42%

**Q.** What about the “Pt195 in HMWF (albumin-bound)” value (albumin (mouse serum); [6]) of the same compound?
**A.** 68%

**Q.** What about the “Pt195 in LMWF” value (albumin (mouse serum); [6]) of the same compound?
**A.** 32%

**Q.** And the “Pt195 in HMWF (albumin-bound)” value (albumin (mouse serum); [7])?
**A.** 74%

**Q.** And the “Pt195 in LMWF” value (albumin (mouse serum); [7])?
**A.** 26%

**Q.** And the “Pt195 in HMWF (albumin-bound)” value (albumin (mouse serum); [8])?
**A.** 78%

**Q.** What about the “Pt195 in LMWF” value (albumin (mouse serum); [8]) of the same compound?
**A.** 22%

**Q.** What about the “Pt195 in HMWF (albumin-bound)” value (albumin (mouse serum); [9]) of the same compound?
**A.** 79%

**Q.** What about the “Pt195 in LMWF” value (albumin (mouse serum); [9]) of the same compound?
**A.** 21%

**Q.** And the “Pt195 in HMWF (albumin-bound)” value (albumin (mouse serum); [10])?
**A.** 80%

**Q.** What about the “Pt195 in LMWF” value (albumin (mouse serum); [10]) of the same compound?
**A.** 20%

**Q.** And the “Pt195 in LMWF” value (albumin (mouse serum); pH 7.4, 1 h intervals, 0 h)?
**A.** 66%

**Q.** What about the “Pt195 in HMWF (albumin-bound)” value (albumin (mouse serum); pH 7.4, 1 h intervals, 1 h) of the same compound?
**A.** 75%

**Q.** And the “Pt195 in LMWF” value (albumin (mouse serum); pH 7.4, 1 h intervals, 1 h)?
**A.** 25%

**Q.** And the “Pt195 in HMWF (albumin-bound)” value (albumin (mouse serum); pH 7.4, 1 h intervals, 2 h)?
**A.** 74%

**Q.** What about the “Pt195 in LMWF” value (albumin (mouse serum); pH 7.4, 1 h intervals, 2 h) of the same compound?
**A.** 26%

**Q.** And the “Pt195 in HMWF (albumin-bound)” value (albumin (mouse serum); pH 7.4, 1 h intervals, 3 h)?
**A.** 74%

**Q.** And the “Pt195 in LMWF” value (albumin (mouse serum); pH 7.4, 1 h intervals, 3 h)?
**A.** 26%

**Q.** And the “Pt195 in HMWF (albumin-bound)” value (albumin (mouse serum); pH 7.4, 1 h intervals, 4 h)?
**A.** 74%

**Q.** And the “Pt195 in LMWF” value (albumin (mouse serum); pH 7.4, 1 h intervals, 4 h)?
**A.** 26%

**Q.** What about the “Pt195 in HMWF (albumin-bound)” value (albumin (mouse serum); pH 7.4, 1 h intervals, 24 h) of the same compound?
**A.** 75%

**Q.** What about the “Pt195 in LMWF” value (albumin (mouse serum); pH 7.4, 1 h intervals, 24 h) of the same compound?
**A.** 25%

**Q.** What about the “Platinum in the HMWF (protein-bound)” value (albumin) of the same compound?
**A.** 75%

**Q.** And the “Platinum in the HMWF (protein-bound)” value (IgG)?
**A.** less than 20%

**Q.** And the “Platinum in the HMWF (protein-bound)” value (apotransferrin)?
**A.** less than 10%

**Q.** What about the “Platinum in the HMWF (protein-bound)” value (α1-antitrypsin) of the same compound?
**A.** ~30%

**Q.** And the Cmax ([3]; measured at tmax=0.08 h, single i.v. dose 4.42 mg/kg Pt)?
**A.** 35.6 mg/kg

**Q.** What about the “Percentage of AUCPt_0-∞ extrapolated from tlast to infinity” value ([3]; tlast=24 h) of the same compound?
**A.** 27.7%

**Q.** What about the Half-life ([3]; terminal half-life, i.v.) of the same compound?
**A.** 12.2 h

**Q.** What about the CL ([3]; total body clearance, single i.v. dose 4.42 mg/kg Pt) of the same compound?
**A.** 0.00892 kg/h/kg

**Q.** What about the Vz ([3]; volume of distribution based on the terminal phase, i.v.) of the same compound?
**A.** 0.157 kg/kg
